Patent publication US20090023589A1, “METHODS FOR IDENTIFYING CONDITIONS AFFECTING A CELL STATE” (priority 2004, published 2009)

Test system: HL-60 cells
Assay: Surface marker expression profile of HL-60 cells after combinatorial differentiation (flow cytometry, percent positive cells, hierarchical clustering)
Assay type: cell-based
Conditions: for expression of cell surface marker CD 125w: med concentrations, sodium butyrate at pH 7.8; for monocyte signature profile (CD 14hi, CD11b/Mac-1hi, CD 13+, CD66b-): binary and ternary combinations, clustering on myeloid markers
Protocol: HL-60 cells were used to study what factors are involved in cellular differentiation. At day 0, the cells were plated in wells using a 96 well plate at a seeding density of approximately 60,000 cells, appropriate cell media was added. […] Cells were induced with the factors in Table 1 and 2. At day 4, the cells were harvested and labeled with antibody (see Table 3) for cytometry. The labeling was accomplished by washing the cells with PBS (phosphate buffered saline). Then gamma globulin was used to block non-specific binding sites. The gamma globulin treatment lasted for approximately 20 minutes at room temperatures on a rocker shaker.
The antibody cocktail concentration for each antibody used was based on manufacturer's instruction adjusted for final cell number. The antibody cocktail was incubated for 30 minutes at room temperature on rocking shaker. Following the incubation, the cells were washed using PBS. The cells were resuspended in 1% ultrapure methanol free formaldehyde and refrigerated until analysis. The cells were analyzed using a BD FACSCalibur equipped with a high throughput sampler (HTS) which has a dual laser excitation line: argon (488 nm) and red diode (635 nm).
The positive control for these experiments was 100 nm vitamin D3 plus CD 14 antibody. The negative controls were (1) untreated cells plus antibody cocktails located on the plates; and (2) fresh untreated cells plus antibody cocktails located on separate plates.
HL-60 cells were exposed to five well studied chemical differentiation factors (dimethylsulfoxide (DMSO), Vitamin D3, Phorbol-12-myristate-13-acetate (PMA), Sodium butyrate+pH 7.8, and all-Trans Retinoic Acid (ATRA)) known to promote differentiation along three distinct pathways (neutrophil, monocyte, eosinophil/basophil) within the myeloid lineage. Differentiation was induced by creating binary and ternary five factor combinations using the five factors at three concentrations for the binary experiment and two concentrations for the ternary experiment.
To observe experiment-wide profiles of marker expression, we used the percentage of positive cells for all markers and constructed a profile for each combinatorial treatment. Hierarchical clustering orders the data so that the most similar profile are next to each other in the plot.
To refine cluster analysis with relevant information, one can choose specific cell surface markers. In order to test the validity of the experiment, we clustered based on cell surface markers known to be expressed in the myeloid lineage: CD66b, CD11b/Mac-1, CD13+CD 14 (FIG. 8 a,b). Cells which have differentiated toward the monocytic lineage have a CD 14^hi, CD11b/Mac-1^hi, CD 13^+, CD66b^− expression profile.

Structure (SMILES)	expression of cell surface marker CD 125w	monocyte signature profile (CD 14hi, CD11b/Mac-1hi, CD 13+, CD66b-)
C[S+](C)[O-] [DMSO, dimethylsulfoxide]	neither DMSO^med nor sodium butyrate^med, pH 7.8 alone produced cells positive for CD 125w	–
CCCCCCCCCCCCCC(=O)O[C@@H]1[C@@H](C)[C@@]2(O)[C@@H](C=C(CO)C[C@]3(O)C(=O)C(C)=C[C@@H]23)[C@@H]2C(C)(C)[C@]12OC(C)=O [PMA, Phorbol-12-myristate-13-acetate]	–	contributed to the monocyte signature profile
C=C1CC[C@H](O)C/C1=C/C=C1\CCC[C@]2(C)[C@@H]([C@H](C)CCCC(C)C)CC[C@@H]12 [Vitamin D3]	–	contributed to the monocyte signature profile
CCCC(=O)[O-].[Na+] [sodium butyrate, Sodium butyrate]	neither DMSO^med nor sodium butyrate^med, pH 7.8 alone produced cells positive for CD 125w	–
